Data: patent US20150166533A1, “NOVEL 1,3-DIHYDRO-2H-BENZIMIDAZOL-2-ONE DERIVATIVES SUBSTITUTED WITH BENZIMIDAZOLES AS RESPIRATORY SYNCYTIAL VIRUS ANTIVIRAL AGENTS” (Janssen R&D Ireland, priority 2012, published 2015)
Read-outs that look alike come from different tables or passages of the source.

Tests used:
[1] = test system: rgRSV224 virus; assay: Antiviral activity: inhibition of rgRSV224 replication (GFP expression) in HeLa cells; type: cell-based, respiratory syncytial virus (RSV); settings: read-out: WT activity EC50
Method: Black 96-well clear-bottom microtiter plates (Corning, Amsterdam, The Netherlands) were filled in duplicate using a customized robot system with serial 4-fold dilutions of compound in a final volume of 50 μl culture medium [RPMI medium without phenol red, 10% FBS, 0.04% gentamycin (50 mg/ml) and 0.5% DMSO]. Then, 100 μl of a HeLa cell suspension (5×10^4 cells/ml) in culture medium was added to each well followed by the addition of 50 μl rgRSV224 (MOI=0.02) virus in culture medium using a multidrop dispenser (Thermo Scientific, Erembodegem, Belgium). rgRSV224 virus is an engineered virus that includes an additional GFP gene (Hallak et al, 2000) and was in-licensed from the NIH (Bethesda, Md., USA). Medium, virus- and mock-infected controls were included in each test. Cells were incubated at 37° C. in a 5% CO2 atmosphere. Three days post-virus exposure, viral replication was quantified by measuring GFP expression in the cells by a MSM laser microscope (Tibotec, Beerse, Belgium).
(§1) The EC50 was defined as the 50% inhibitory concentration for GFP expression. In parallel, compounds were incubated for three days in a set of white 96-well microtitier plates (Corning) and the cytotoxicity of compounds in HeLa cells was determined by measuring the ATP content of the cells using the ATPlite kit (PerkinElmer, Zaventem, Belgium) according to the manufacturer's instructions. The CC50 was defined as the 50% concentration for cytotoxicity.
Compounds were tested for RSV inhibitory activity. The results are depicted in the Table below (n.d. means not determined): […]

[2] = Cytotoxicity in HeLa cells, ATP content (ATPlite kit); type: cell-based; settings: human, three days incubation, read-out: Tox CC50
Method: as §1

[3] = test system: HeLa cells; assay: Cytotoxicity in HeLa cells, ATP content (ATPlite kit); type: cell-based; settings: three days incubation, read-out: Tox CC50
Method: as §1

[4] = human respiratory syncytial virus, HeLa, 72 h

## CC(C)(C)OC(=O)N1CC(n2c(=O)n(Cc3nc4cc(Cl)ccc4n3CCCS(C)(=O)=O)c3ccccc32)C1 [Compound P1, tert-butyl-3-(3-((5-chloro-1-(3-(methyl-sulfonyl)propyl)-1H-bezon[d]imidazol-2-yl)methyl)-2-oxo-2,3-dihydro-1H-imidazo[d]imidazol-1-yl)azetidine-1-carboxylate]
[1]; [4]
  EC50: 0.68 nM
[2]
  CC50 at 3 days: > 100000 nM

## CC(C)(C)n1c(=O)n(Cc2nc3cc(Cl)ccc3n2CCCS(C)(=O)=O)c2cnccc21 [Compound P2, 1-tert-butyl-3-((5-chloro-1-(3-(methyl-sulfonyl)propyl)-1H-benzo[d]imidazol-2-yl)methyl)-1H-imidazo[4,5-c]pyridin-2(3H)-one]
[1]; [4]
  EC50: 0.39 nM
[2]
  CC50 at 3 days: > 100000 nM
other
  melting point: 197 °C

## COc1ccc(-n2c(=O)n(Cc3nc4cc(Cl)ccc4n3CCCS(C)(=O)=O)c3cnccc32)cc1 [Compound P7, 3-((5-chloro-1-(3-(methylsulfonyl)propyl)-1H-benzo[d]imidazol-2-yl)-methyl)-1-(4-methoxyphenyl)-1H-imidazo[4,5-c]pyridin-2(3H)-one]
[1]; [4]
  EC50: 0.05 nM
[2]
  CC50 at 3 days: > 100000 nM
other
  melting point: 250 °C

## CC1(n2c(=O)n(Cc3nc4cc(Cl)ccc4n3CCCS(C)(=O)=O)c3cnccc32)CC1 [Compound P3]
[1]; [4]
  EC50: 0.25 nM
[2]
  CC50 at 3 days: > 100000 nM

## COc1ccc(-n2c(=O)n(Cc3nc4cc(Cl)ccc4n3CCCCF)c3cnccc32)cc1 [Compound P5, 3-((5-chloro-1-(4-fluorobutyl)-1H-benzo[d]imidazol-2-yl)methyl)-1-(4-methoxyphenyl)-1H-imidazo[4,5-c]pyridin-2(3H)-one]
[1]; [4]
  EC50: < 0.1 nM
[2]
  CC50 at 3 days: > 100000 nM
other
  melting point: 167 °C

## O=c1n(Cc2nc3cc(Cl)ccc3n2CCCCF)c2cnccc2n1-c1ccc2ncccc2c1 [Compound P9, 3-((5-chloro-1-(4-fluororbutyl)-1H-benzo[d]imidazol-2-yl)methyl)-1-(quinolin-6-yl)-1H-imidazo[4,5-c]pyridin-2(3H)-one]
[1]; [4]
  EC50: 0.25 nM
[2]
  CC50 at 3 days: > 100000 nM
other
  melting point: 231 °C

## O=c1n(Cc2nc3cc(Cl)ccc3n2CCCCF)c2cnccc2n1-c1ccc(F)nc1 [Compound P6, 3-((5-chloro-1-(4-fluorobutyl)-1H-benzo[d]imidazol-2-yl)methyl)-1-(6-fluoropyridin-3-yl)-1H-imidazo[4,5-c]pyridin-2(3H)-one]
[1]; [4]
  EC50: 0.79 nM
[2]
  CC50 at 3 days: > 100000 nM
other
  melting point: 208 °C

## 3-((5-chloro-1-(4-fluorobutyl)-1H-benzo[d]imidazol-2-yl)methyl)-1-(tetrahydrofuran-3-yl)-1H-imidazo[4,5-c]pyridin-2(3H)-one [Compound P10]
[1]; rgRSV224 (MOI=0.02) in HeLa cells, GFP expression three days post-virus exposure
  EC50: 15 nM
[3]
  CC50: > 100000 nM

## O=c1n(Cc2nc3cc(Cl)ccc3n2CCCCF)c2cnccc2n1-c1nccs1 [Compound P8, 3-((5-chloro-1-(4-fluororbutyl)-1H-benzo[d]imidazol-2-yl)methyl)-1-(thiazol-2-yl)-1H-imidazo[4,5-c]pyridin-2(3H)-one]
[1]; [4]
  EC50: 0.19 nM
[2]
  CC50 at 3 days: > 100000 nM
other
  melting point: 206 °C

## O=c1n(Cc2nc3cc(Cl)ccc3n2CCCCF)c2cnccc2n1-c1ccc(F)cc1 [Compound P4, 3-((5-chloro-1-(4-fluorobutyl)-1H-benzo[d]imidazol-2-yl)methyl)-1-(4-fluorophenyl)-1H-imidazo[4,5-c]pyridin-2(3H)-one]
[1]; [4]
  EC50: 0.3 nM
[2]
  CC50 at 3 days: > 100000 nM
other
  melting point: 180 °C
